Measurements as given in patent US11998016B2, “Use of Chaetomium globosum strain in controlling fusarium crown rot of wheat” (priority 2020, dated 2024).

System: Fusarium crown rot (FCR) of wheat, Fusarium pseudograminearum G14LY24-2
Test: Field effect of seed coating on controlling FCR of wheat (inoculated field disease nurseries)
Type: in vivo
Conditions: for Average disease rating: grading 0-5
Method: Wheat grains are soaked for 12 h, sterilized for 60 min, allowed to stand for two days, sterilized for 30-60 min, and cooled for later use. Fusarium pseudograminearum G14LY24-2 was selected on a PDA plate. After growing for three days, marginal hyphae were picked to grow on a fresh PDA plate. After three days, the hyphal pellets were plated into a wheat grain polyethylene bag with sterilized wheat grains. The hyphal pellets grew at room temperature for two weeks until the fungi grew all over wheat grains, and stored in a refrigerator at 4° C. after air-drying.
Disease nurseries were constructed in a 1:1 ratio of seed quantity to inoculum volume ratio. The inoculation was located 3-5 cm above the seed. The seeds to be sown and the inoculum were mixed first, and after mixing well, well-mixed sowing materials were sown by a planter.
Selected C. globosum strains were activated on a fresh PDA, and hyphal pellets were picked into 9 cm PDA Petri dishes. After 15 days, perithecia were ground in sterile water using a spreading rod, and ascospore suspension was controlled at about 100 mL, with a concentration of 1.0-2.0×10^7 ascospores/mL; in case of a low concentration, the suspension was centrifuged at 3,000 rpm for 5 min, dewatered, and resuspended. 75 mL of fungal suspension (approximately 1.3×10^7 ascospores/mL) was mixed with 25 mL of 4 wt % carboxymethyl cellulose salt solution into 100 mL of fungal suspension with 1% carboxymethyl cellulose salt (approximately 1.0×10^7 ascospores/mL). 100 mL of 1×10^7 ascospores/mL fungal suspension with 1% carboxymethyl cellulose salt was mixed well with 5 kg of wheat seeds. Chaetomium globosum strain 12XP1-2-3-coated seeds were rinsed and spread on a plate to count spores on the seed surface, which was 5.0-5.3×10^4 ascospores per seed. The wheat cultivar in 2018 was “Bainong 207”, the wheat cultivar in 2019 was “Aikang 58”, the control agent was 30 g/L difenoconazole, and the seeds were dressed in an agent-to-seed ratio of 1:333.
Field sampling method: At the seedling stage, the emergence rate was investigated, and the plant height, tap root length, fresh weight, dry weight, and colonization ability of C. globosum were measured; at the tillering stage, the morbidity was investigated, and the plant height, tap root length, fresh weight, dry weight, tiller number, and colonization ability of C. globosum were measured; the morbidity was investigated at the jointing stage; the white ear rate was investigated at the filling stage. The method was to investigate the number of white heads and total number of ears per 1 m2 plot and calculate the white ear rate of the plot. The diseased stem rate was investigated at the maturing stage; 20 stems were sampled at five points in each plot, a total of 100 stems for each treatment were brought back to the laboratory, and leaf sheaths were removed thoroughly to determine the disease rating.
The grading standard for adult stage was as follows: 0=no disease; 1=browning in the first node; 2=browning in the second node; 3=browning in the third node; 4=browning in the peduncle or white ears at the filling stage; and 5=diseased plant without ear bearing. The yield was determined during harvest.

[1] = “Aikang 58” in Wenxian in 2019, wheat filling stage
[2] = “Bainong 207” in Kaifeng in 2018, wheat filling stage

CC1COC(Cn2cncn2)(c2ccc(Oc3ccc(Cl)cc3)cc2Cl)O1 (stereo not drawn) [Difenoconazole, difenoconazole]
Disease index [1]: 9.4
Diseased stem rate % [1]: 26.0%
Average disease rating [1]: 0.5
Disease index [2]: 12.9
Diseased stem rate % [2]: 30.0%
Average disease rating [2]: 0.6
